The experiment has as its system P388 leukemia ip, CD2F1 mice, survival T/C. In words: NCI In Vivo Anticancer Drug Screen. Data for tumor model P388 Leukemia (intraperitoneal) in CD2F1 (CDF1) mice. The following applies: endpoint: median survival time, higher = longer survival. In outline:
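Mice carrying the transplanted tumor received test compound or vehicle. Survival was recorded in each group, and the value is the treated-group measurement divided by that of the vehicle-treated control group.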

Setting [1] is: dose: 12.5 mg/kg/injection, schedule: Q01DX009 (ip), vehicle: saline.
The mark [2] stands for this setting: dose: 6.25 mg/kg/injection, schedule: Q01DX009 (ip), vehicle: saline.

T/C data for six compounds are collected here from PubChem BioAssay AID330 (DTP/NCI, 2004).

SMILES strings stand for the structures. “And” between values parts separate entries of the source, which are not always exact repeats. Equal values may be shown once. Inconclusive results and toxic doses are left out.

For `Nc1ncnc2c1ncn2C1OC(COP(=O)(O)O)C(O)C1O` (stereo unspecified), the T/C by setting is: under setting [1], 99 % of control; (dose: 18.8 mg/kg/injection, schedule: Q03HX016 (ip), vehicle: saline) 123 % of control; (dose: 18.8 mg/kg/injection, schedule: Q03HX024 (ip), vehicle: saline) 113 % of control; (dose: 20.0 mg/kg/injection, schedule: Q01DX009 (ip), vehicle: water) 96 % of control; (dose: 25.0 mg/kg/injection, schedule: Q01DX009 (ip), vehicle: saline) 102 % of control; (dose: 25.0 mg/kg/injection, schedule: Q01DX009 (ip), vehicle: suspension in saline) 104 % of control. The T/C (dose: 40.0 mg/kg/injection, schedule: Q01DX009 (ip), vehicle: water) is 103 % of control and 105 % of control; the T/C (dose: 50.0 mg/kg/injection, schedule: Q01DX005 (ip), vehicle: water) was 101 % of control; the T/C (dose: 50.0 mg/kg/injection, schedule: Q01DX005 (iv), vehicle: water) was 102 % of control; the T/C (dose: 50.0 mg/kg/injection, schedule: Q01DX009 (ip), vehicle: saline) was 94 % of control and 98 % of control; the T/C (dose: 50.0 mg/kg/injection, schedule: Q01DX009 (ip), vehicle: suspension in saline) was 100 % of control; the T/C (dose: 50.0 mg/kg/injection, schedule: Q01DX009 (ip), vehicle: water) was 113 % of control. The T/C is, setting by setting: (dose: 75.0 mg/kg/injection, schedule: Q03HX016 (ip), vehicle: saline) 152 % of control; (dose: 75.0 mg/kg/injection, schedule: Q03HX024 (ip), vehicle: saline) 150 % of control; (dose: 80.0 mg/kg/injection, schedule: Q01DX009 (ip), vehicle: water) 108 % of control and 116 % of control; (dose: 90.0 mg/kg/injection, schedule: Q03HX024 (ip), vehicle: water) 122 % of control; (dose: 100.0 mg/kg/injection, schedule: Q01DX005 (ip), vehicle: water) 122 % of control; (dose: 100.0 mg/kg/injection, schedule: Q01DX005 (iv), vehicle: water) 104 % of control. For the same compound, the T/C (dose: 100.0 mg/kg/injection, schedule: Q01DX009 (ip), vehicle: saline) was 101 % of control and 96 % of control; the T/C (dose: 100.0 mg/kg/injection, schedule: Q01DX009 (ip), vehicle: suspension in saline) was 96 % of control; the T/C (dose: 100.0 mg/kg/injection, schedule: Q01DX009 (oral), vehicle: water) was 99 % of control; the T/C (dose: 100.0 mg/kg/injection, schedule: Q03HX016 (ip), vehicle: saline) was 156 % of control; the T/C (dose: 100.0 mg/kg/injection, schedule: Q03HX016 (ip), vehicle: water) was 160 % of control; the T/C (dose: 100.0 mg/kg/injection, schedule: Q03HX024 (ip), vehicle: saline) was 150 % of control. Besides, the T/C by setting is: (dose: 100.0 mg/kg/injection, schedule: Q03HX024 (ip), vehicle: water) 151 % of control; (dose: 100.0 mg/kg/injection, schedule: Q04DX003 (ip), vehicle: water) 120 % of control; (dose: 100.0 mg/kg/injection, schedule: Q08DX002 (ip), vehicle: water) 112 % of control; (dose: 150.0 mg/kg/injection, schedule: Q03HX016 (ip), vehicle: saline) 167 % of control; (dose: 150.0 mg/kg/injection, schedule: Q03HX024 (ip), vehicle: saline) 171 % of control; (dose: 160.0 mg/kg/injection, schedule: Q01DX009 (ip), vehicle: water) 109 % of control. Moreover, the T/C was 102 % of control (dose: 200.0 mg/kg/injection, schedule: Q01DX005 (iv), vehicle: water); 92 % of control and 101 % of control (dose: 200.0 mg/kg/injection, schedule: Q01DX009 (ip), vehicle: saline); 106 % of control (dose: 200.0 mg/kg/injection, schedule: Q01DX009 (ip), vehicle: suspension in saline); 104 % of control (dose: 200.0 mg/kg/injection, schedule: Q01DX009 (oral), vehicle: water); 183 % of control (dose: 200.0 mg/kg/injection, schedule: Q03HX016 (ip), vehicle: water); 186 % of control (dose: 200.0 mg/kg/injection, schedule: Q03HX024 (ip), vehicle: water). Also, the T/C (dose: 200.0 mg/kg/injection, schedule: Q04DX003 (ip), vehicle: water) is 121 % of control; the T/C (dose: 200.0 mg/kg/injection, schedule: Q08DX002 (ip), vehicle: water) was 113 % of control; the T/C (dose: 400.0 mg/kg/injection, schedule: Q01DX005 (iv), vehicle: water) was 106 % of control; the T/C (dose: 400.0 mg/kg/injection, schedule: Q01DX009 (ip), vehicle: saline) is 104 % of control; the T/C (dose: 400.0 mg/kg/injection, schedule: Q01DX009 (ip), vehicle: water) is 153 % of control; the T/C (dose: 400.0 mg/kg/injection, schedule: Q03HX009 (oral), vehicle: water) was 98 % of control. The T/C (dose: 400.0 mg/kg/injection, schedule: Q03HX015 (oral), vehicle: water) was 103 % of control; the T/C (dose: 400.0 mg/kg/injection, schedule: Q03HX016 (ip), vehicle: water) is 230 % of control; the T/C (dose: 400.0 mg/kg/injection, schedule: Q03HX024 (ip), vehicle: water) was 210 % of control; the T/C (dose: 400.0 mg/kg/injection, schedule: Q04DX003 (ip), vehicle: water) was 119 % of control; the T/C (dose: 400.0 mg/kg/injection, schedule: Q08DX002 (ip), vehicle: water) is 118 % of control; the T/C (dose: 800.0 mg/kg/injection, schedule: Q01DX005 (ip), vehicle: water) was 158 % of control. For the same compound, the T/C is 111 % of control (dose: 800.0 mg/kg/injection, schedule: Q01DX005 (iv), vehicle: water); 164 % of control (dose: 800.0 mg/kg/injection, schedule: Q01DX009 (ip), vehicle: water); 90 % of control (dose: 800.0 mg/kg/injection, schedule: Q01DX009 (oral), vehicle: water); 167 % of control (dose: 800.0 mg/kg/injection, schedule: Q03HX009 (ip), vehicle: water); 105 % of control (dose: 800.0 mg/kg/injection, schedule: Q03HX009 (oral), vehicle: water); 100 % of control (dose: 800.0 mg/kg/injection, schedule: Q03HX015 (oral), vehicle: water). The T/C was 260 % of control (dose: 800.0 mg/kg/injection, schedule: Q03HX016 (ip), vehicle: water); 124 % of control (dose: 800.0 mg/kg/injection, schedule: Q08DX002 (ip), vehicle: water); 99 % of control (dose: 1600.0 mg/kg/injection, schedule: Q01DX009 (oral), vehicle: water); 197 % of control (dose: 1600.0 mg/kg/injection, schedule: Q03HX009 (ip), vehicle: water); 98 % of control (dose: 1600.0 mg/kg/injection, schedule: Q03HX009 (oral), vehicle: water); 100 % of control (dose: 1600.0 mg/kg/injection, schedule: Q03HX015 (oral), vehicle: water). Besides, the T/C is 96 % of control (dose: 3200.0 mg/kg/injection, schedule: Q03HX009 (oral), vehicle: water) and 102 % of control (dose: 3200.0 mg/kg/injection, schedule: Q03HX015 (oral), vehicle: water).
`C[n+]1c2cc(N)ccc2cc2ccc(N)cc21`: the T/C by setting is: (dose: 3.12 mg/kg/injection, schedule: Q01DX005 (ip), vehicle: suspension in saline) 121 % of control; (dose: 6.25 mg/kg/injection, schedule: Q01DX005 (ip), vehicle: suspension in saline) 117 % of control; under setting [2], 153 % of control; under setting [1], 164 % of control.
On to `O=C1C2C3CCC(O3)C2C(=O)N1SC(Cl)(Cl)Cl` (stereo unspecified), for which the T/C (dose: 3.12 mg/kg/injection, schedule: Q01DX009 (ip), vehicle: saline) is 101 % of control; the T/C under setting [2] was 108 % of control; the T/C under setting [1] is 100 % of control.
For `COC(=O)c1c2c(nc3ccccc13)-c1ccccc1C(C)(C)C2`, the T/C is, setting by setting: (dose: 50.0 mg/kg/injection, schedule: Q01DX005 (ip), vehicle: Klucel (hydroxypropylcellulose) (HPC)) 92 % of control; (dose: 100.0 mg/kg/injection, schedule: Q01DX005 (ip), vehicle: Klucel (hydroxypropylcellulose) (HPC)) 95 % of control; (dose: 200.0 mg/kg/injection, schedule: Q01DX005 (ip), vehicle: Klucel (hydroxypropylcellulose) (HPC)) 96 % of control.
As to `O=C1C2C3C=CC(C2C(=O)N1CN1CCOCC1)C1C2C(=O)N(CN4CCOCC4)C(=O)C2C31` (stereo unspecified), the T/C (dose: 25.0 mg/kg/injection, schedule: Q01DX009 (ip), vehicle: saline with Tween-80) was 120 % of control.
With `O=c1nnc(O)c2n(O)cccc1-2`, the T/C reads like this: (dose: 60.0 mg/kg/injection, schedule: Q01DX005 (ip), vehicle: saline with Tween-80) 100 % of control; (dose: 120.0 mg/kg/injection, schedule: Q01DX005 (ip), vehicle: saline with Tween-80) 105 % of control; (dose: 240.0 mg/kg/injection, schedule: Q01DX005 (ip), vehicle: saline with Tween-80) 97 % of control.
